Test results as given in patent US5980933A, “Transdermal formulation of xanomeline” (Eli Liily and Company, priority 1997, dated 1999).

Columns and labels:
[1] = Saturation limit of xanomeline in acrylic adhesive; type: physicochemical
Description: The values had been derived from clear solutions of the drug in the adhesive. Unfortunately, the saturation limit of about 23-28% (w/w) in this polymer limits the utilization of this unexpected advantage of highly enriched xanomeline preparations. It is concluded from this unexpected results that an optimum formulation has to contain a slightly subsaturated, saturated or even supersaturated amount of xanomeline for best performance.

[2] = system: muscarinic receptors in the brain; assay: Ex vivo 3H-pirenzepine binding in rat brain after patch application; settings: after oral administration
Procedure: The patches prepared as stated herein were applied to rats. The rats were killed in pairs at various time points after application and the rat brains were removed and frozen. The binding of the M1 antagonist ligand, ^3 H-pirenzepine, to muscarinic receptors in the brain was determined. The decrease in binding is indicative of drug or active metabolite present in the brain. The effect of the drug after oral administration lasts less than 6 hours. The percent of control ex vivo pirenzepine binding at 6 hours was 33%, at 12 hours 15%, at 24 hours 26%, and at 48 hours 53%. The mean plasma concentration using this patch formulation was as follows: […]
The patches prepared as stated herein were applied to rats. The rats were killed in pairs at various time points after application and the rat brains were removed and frozen. The binding of the M1 antagonist ligand, ^3 H-pirenzepine, to muscarinic receptors in the brain was determined. The decrease in binding is indicative of drug or active metabolite present in the brain. The effect of the drug after oral administration lasts less than 6 hours. The percent of control ex vivo pirenzepine binding at 6 hours was 101%, at 12 hours 89%, at 24 hours 75%, and at 48 hours 105%.

saturation limit in this polymer [1]: 23-28 % (w/w)
Compound: CCCCCCOc1nsnc1C1=CCCN(C)C1 [xanomeline, 3-[4-(hexyloxy)-1,2,5-thiadiazol-3-yl]-1,2,5,6-tetrahydro-1-methylpyridine]
duration of the effect of the drug [2]: less than 6 hours
